The results in this text go back to patent US20250154141A1 (University of Florida Research Foundation, Incorporated, priority 2021, published 2025).

Structures are written as SMILES. pIC50: −log10 of the molar value. Like-named read-outs stand apart in the source and are kept apart here.

Assay type in all cases: cell-based
The test system of one experiment is MOLT-4. In words: Cell viability assay (MTS) in MOLT-4 cells. The following applies: Homo sapiens. As to the method:
(§1) Acute lymphoblastic leukemia cells (MOLT-4 and RS4; 11) were incubated with increasing concentrations of Bcl-xL degraders for 48 h. Cell viability was measured by tetrazolium-based MTS assay.

Another experiment relates to human platelets. In words: Platelet toxicity assay (MTS viability). The following applies: for pIC50: Platelet, 48 h, human platelets. As to the method:
Platelet-rich plasma (PRP) was purchased from Life South Community Blood Centers (Gainesville, FL, USA). PRP was transferred into a 50 mL tube containing 5 mL of the acid citrate buffer (Cat. No. sc-214744, Santa Cruz Biotechnology). To prevent clotting, prostaglandin E1 (PGE1, Cat. No. sc-201223A, Santa Cruz Biotechnology, Dallas, TX, USA) and apyrase (Cat. No. A6237, Sigma-Aldrich, St. Louis, MO, USA) were added to final concentrations of […] and 0.2 U/mL, respectively. After gently mixing the solution, platelets were pelleted by centrifugation at 1200 g for 10 min without break. Pelleted platelets were gently washed without disturbing platelets using 2 mL of HEPES Tyrode's buffer (Cat. No. PY-921WB, Boston BioProducts, Ashland, MA, USA) containing […] PGE1 and 0.2 U/mL apyrase. After washing, pellets were gently suspended in 10 mL of HEPES Tyrode's buffer containing […] PGE1 and 0.2 U/mL apyrase. Then, the platelet number was counted using a HEMAVET 950FS hematology analyzer (Drew Scientific, Inc., Oxford, CT, USA). For viability assays, the platelet number was adjusted to 2×10^8/mL in HEPES Tyrode's buffer containing […] PGE1 and 0.2 U/mL apyrase. Each treatment was given in 2 mL of the platelet suspension in 15 mL polypropylene tubes. The tubes were placed on a rotating platform at room temperature, and the viability of platelets was measured after 48 h treatment by using the MTS reagent (Cat. No. G1111, Promega, Madison, WI, USA). The data were analyzed by the GraphPad Prism 7 software for the calculation of IC50 values.

A further experiment has as its system RS4; 11. In words: Cell viability assay (MTS) in RS4; 11 cells. On the set-up: Anti-Cancer Activity IC50 (48 hr) RS4; 11: scale not given here. As to conditions: for pIC50: Homo sapiens. The method, then:
as §1

The mark [1] stands for this setting: MOLT-4, Table 2, 48 hr, MTS, read-out: Anti-Cancer Activity IC50 (48 hr) MOLT-4.
Where [2] appears, read: MOLT-4, Table 5, 48 h, read-out: MOLT-4 48 h IC50.
Where [3] appears, read: Homo sapiens, Table 5, read-out: Platelets 48 h IC50.
The mark [4] stands for this setting: RS4-11, Table 5, 48 h, read-out: RS4 48 h IC50.
The mark [5] stands for this setting: MOLT-4, Table 3, 48 h, mean of two independent experiments in triplicates, read-out: MOLT-4 48 h IC50.
The mark [6] stands for this setting: Homo sapiens, Table 3, mean of two independent experiments in triplicates, read-out: Platelets 48 h IC50.
Setting [7] is: Table 3, ratio of platelet IC50 to MOLT-4 IC50.
Where [8] appears, read: RS4-11, Table 2, 48 hr, MTS, read-out: Anti-Cancer Activity IC50 (48 hr) RS4, 11.
Setting [9] is: Homo sapiens, Table 4, read-out: Platelets 48 h IC50.
Where [10] appears, read: RS4-11, Table 4, 48 h, read-out: RS4 48 h IC50.

By pIC50 is commonly meant the negative decadic logarithm of the IC50, by convention in mol/L. As to `Cc1ncsc1-c1ccc([C@H](C)NC(=O)[C@@H]2C[C@@H](O)CN2C(=O)[C@@H](NC(=O)CCCCCCC(=O)N2CCN(CC3(C)CCC(c4ccc(Cl)cc4)=C(CN4CCN(c5ccc(C(=O)NS(=O)(=O)c6ccc(N[C@H](CCN7CCC7)CSc7ccccc7)c([N+](=O)[O-])c6)cc5)CC4)C3)CC2)C(C)(C)C)cc1` (stereo partly drawn) [Compound 37, (2S,4R)-1-((2S)-2-(8-(4-((6-((4-(4-(((4-(((R)-4-(azetidin-1-yl)-1-(phenylthio)butan-2-yl)amino)-3-nitrophenyl)sulfonyl)carbamoyl)phenyl)piperazin-1-yl)methyl)-4′-chloro-4-methyl-2,3,4,5-tetrahydro-[1,1′-biphenyl]-4-yl)methyl)piperazin-1-yl)-8-oxooctanamido)-3,3-dimethylbutanoyl)-4-hydroxy-N—((S)-1-(4-(4-methylthiazol-5-yl)phenyl)ethyl)pyrrolidine-2-carboxamide], the negative-log IC50 (pIC50) is over 7.70 in the experiment on MOLT-4 (setting [1]), 7.70 in the experiment with MOLT-4 (setting [2]), 5.34 with human platelets (setting [3]) and 8.15 with RS4; 11 (setting [4]). In the experiment on RS4; 11 (Table 2, 48 hr, MTS), the “Anti-Cancer Activity IC50 (48 hr) RS4; 11” value is recorded as “+ +”.
Turning to `Cc1ncsc1-c1ccc([C@H](C)NC(=O)[C@@H]2C[C@@H](O)CN2C(=O)[C@@H](NC(=O)CCCCCCC(=O)N2CCN(CC3(C)CCC(c4ccc(Cl)cc4)=C(CN4CCN(c5ccc(C(=O)NS(=O)(=O)c6ccc(N[C@H](CCN7CCCC7)CSc7ccccc7)c([N+](=O)[O-])c6)cc5)CC4)C3)CC2)C(C)(C)C)cc1` (stereo partly drawn) [Compound 38, (2S,4R)-1-((2S)-2-(8-(4-((4′-chloro-4-methyl-6-((4-(4-(((3-nitro-4-(((R)-1-(phenylthio)-4-(pyrrolidin-1-yl)butan-2-yl)amino)phenyl)sulfonyl)carbamoyl)phenyl)piperazin-1-yl)methyl)-2,3,4,5-tetrahydro-[1,1′-biphenyl]-4-yl)methyl)piperazin-1-yl)-8-oxooctanamido)-3,3-dimethylbutanoyl)-4-hydroxy-N—((S)-1-(4-(4-methylthiazol-5-yl)phenyl)ethyl)pyrrolidine-2-carboxamide], the pIC50 was over 7.70 in the experiment with MOLT-4 (setting [1]), 7.75 in the experiment with MOLT-4 (setting [5]) and 5.52 with human platelets (setting [6]). Also, in the experiment on human platelets (setting [7]), the “Platelets/MOLT-4 IC50 Fold change” value was determined as 170. The “Anti-Cancer Activity IC50 (48 hr) RS4; 11” value in the experiment with RS4; 11 (Table 2, 48 hr, MTS) is given as “+ ++”.
`Cc1ncsc1-c1ccc([C@H](C)NC(=O)[C@@H]2C[C@@H](O)CN2C(=O)[C@@H](NC(=O)CCCCCCC(=O)N2CCN(CC3(C)CCC(c4ccc(Cl)cc4)=C(CN4CCN(c5ccc(C(=O)NS(=O)(=O)c6ccc(N[C@H](CCN7CCCCC7)CSc7ccccc7)c([N+](=O)[O-])c6)cc5)CC4)C3)CC2)C(C)(C)C)cc1` (stereo partly drawn) [Compound 39, (2S,4R)-1-((2S)-2-(8-(4-((4′-chloro-4-methyl-6-((4-(4-(((3-nitro-4-(((R)-1-(phenylthio)-4-(piperidin-1-yl)butan-2-yl)amino)phenyl)sulfonyl)carbamoyl)phenyl)piperazin-1-yl)methyl)-2,3,4,5-tetrahydro-[1,1′-biphenyl]-4-yl)methyl)piperazin-1-yl)-8-oxooctanamido)-3,3-dimethylbutanoyl)-4-hydroxy-N—((S)-1-(4-(4-methylthiazol-5-yl)phenyl)ethyl)pyrrolidine-2-carboxamide]: the pIC50 in the experiment with MOLT-4 (setting [1]) was over 7.70; with MOLT-4 (setting [5]) it was 7.84; in the experiment with human platelets (setting [6]), 5.34; with human platelets (setting [3]), 5.34; in the experiment with RS4; 11 (setting [8]), over 7.70; in the experiment with RS4; 11 (setting [4]), 8.08. In addition, the “Platelets/MOLT-4 IC50 Fold change” value in the experiment with human platelets (setting [7]) turned out to be 319.
As to `Cc1ncsc1-c1ccc([C@H](C)NC(=O)[C@@H]2C[C@@H](O)CN2C(=O)[C@@H](NC(=O)CCCCCCC(=O)N2CCN(CC3(C)CCC(c4ccc(Cl)cc4)=C(CN4CCN(c5ccc(C(=O)NS(=O)(=O)c6ccc(N[C@H](CCN(C)CCO)CSc7ccccc7)c([N+](=O)[O-])c6)cc5)CC4)C3)CC2)C(C)(C)C)cc1` (stereo partly drawn) [Compound 41, (2S,4R)-1-((2S)-2-(8-(4-((4′-chloro-6-((4-(4-(((4-(((R)-4-((2-hydroxyethyl)(methyl)amino)-1-(phenylthio)butan-2-yl)amino)-3-nitrophenyl)sulfonyl)carbamoyl)phenyl)piperazin-1-yl)methyl)-4-methyl-2,3,4,5-tetrahydro-[1,1′-biphenyl]-4-yl)methyl)piperazin-1-yl)-8-oxooctanamido)-3,3-dimethylbutanoyl)-4-hydroxy-N—((S)-1-(4-(4-methylthiazol-5-yl)phenyl)ethyl)pyrrolidine-2-carboxamide], the pIC50 was 7.00 to 7.70 with MOLT-4 (setting [1]), 7.42 with MOLT-4 (setting [5]), 5.31 with human platelets (setting [6]) and over 7.70 in the experiment with RS4; 11 (setting [8]). For the same compound, in the experiment on human platelets (setting [7]), the “Platelets/MOLT-4 IC50 Fold change” value turned out to be 128.
Regarding `Cc1ncsc1-c1ccc([C@H](C)NC(=O)[C@@H]2C[C@@H](O)CN2C(=O)[C@@H](NC(=O)CCCCCCC(=O)N2CCN(C[C@]3(C)CCC(c4ccc(Cl)cc4)=C(CN4CCN(c5ccc(C(=O)NS(=O)(=O)c6ccc(N[C@H](CCN(C)CCO)CSc7ccccc7)c(S(=O)(=O)C(F)(F)F)c6)cc5)CC4)C3)CC2)C(C)(C)C)cc1` [Compound 62], the pIC50 was over 7.70 with MOLT-4 (setting [1]); 7.68 in the experiment with MOLT-4 (MOLT-4, Table 4, 48 h, read-out: MOLT-4 48 h IC50); under 5.00 in the experiment on human platelets (setting [9]); over 7.70 in the experiment on RS4; 11 (setting [8]); over 8.15 in the experiment on RS4; 11 (setting [10]).
Turning to `Cc1ncsc1-c1ccc([C@H](C)NC(=O)[C@@H]2C[C@@H](O)CN2C(=O)[C@@H](NC(=O)CCCCCCC(=O)N2CCN(C[C@]3(C)CCC(c4ccc(Cl)cc4)=C(CN4CCN(c5ccc(C(=O)NS(=O)(=O)c6ccc(N[C@H](CCN7C[C@H]8C[C@@H]7CO8)CSc7ccccc7)c(S(=O)(=O)C(F)(F)F)c6)cc5)CC4)C3)CC2)C(C)(C)C)cc1` [Compound 66], the pIC50 in the experiment with MOLT-4 (setting [1]) is over 7.70; in the experiment with MOLT-4 (setting [5]), 8.64; in the experiment with human platelets (setting [6]), 6.07; in the experiment on human platelets (setting [9]) it was 6.07; in the experiment on human platelets (Homo sapiens, Table 6, 4 th time, read-out: Platelets 4 th time 48 h IC50), 6.07; in the experiment with RS4; 11 (setting [8]), over 7.70. Moreover, in the experiment with RS4; 11 (setting [10]), the pIC50 was 8.80. Also, the “Platelets/MOLT-4 IC50 Fold change” value in the experiment with human platelets (setting [7]) is 370; in the experiment with human platelets (Table 6, ratio of platelet IC50 to MOLT-4 IC50), 370. In addition, the “PLT/MOLT-4 IC50 Fold Change” value with human platelets (Table 4, ratio of platelet IC50 to MOLT-4 IC50) is recorded as 370.
Regarding `Cc1ncsc1-c1ccc([C@H](C)NC(=O)[C@@H]2C[C@@H](O)CN2C(=O)[C@@H](NC(=O)CCCCC(=O)N2CCC(C3CCN(CC4(C)CCC(c5ccc(Cl)cc5)=C(CN5CCN(c6ccc(C(=O)NS(=O)(=O)c7ccc(N[C@H](CCN8C[C@H]9C[C@@H]8CO9)CSc8ccccc8)c(S(=O)(=O)C(F)(F)F)c7)cc6)CC5)C4)CC3)CC2)C(C)(C)C)cc1` (some centres unmarked) [Compound 69], the pIC50 in the experiment with MOLT-4 (setting [1]) was over 7.70; in the experiment on MOLT-4 (setting [2]), 8.72; in the experiment on human platelets (setting [3]) it was 6.80; in the experiment on RS4; 11 (setting [8]), over 7.70; in the experiment on RS4; 11 (setting [4]) it was 8.43.
Take `Cc1ncsc1-c1ccc([C@H](C)NC(=O)[C@@H]2C[C@@H](O)CN2C(=O)[C@@H](NC(=O)CN2CCN(CC(=O)N3CCN(C[C@]4(C)CCC(c5ccc(Cl)cc5)=C(CN5CCN(c6ccc(C(=O)NS(=O)(=O)c7ccc(N[C@H](CCN8C[C@H]9C[C@@H]8CO9)CSc8ccccc8)c(S(=O)(=O)C(F)(F)F)c7)cc6)CC5)C4)CC3)CC2)C(C)(C)C)cc1` [Compound 105]: the pIC50 with MOLT-4 (MOLT-4, 48 h, read-out: Anti-Cancer Activity IC50 (48 hr) MOLT-4) is over 7.70; in the experiment with MOLT-4 (MOLT-4, 48 h, read-out: MOLT-4 48 h IC50), 8.40; with human platelets (Table 4, read-out: Platelets 48 h IC50), 6.11; in the experiment on RS4; 11 (RS4-11, 48 h, read-out: Anti-Cancer Activity IC50 (48 hr) RS4, 11), over 7.70; in the experiment with RS4; 11 (RS4-11, 48 h, read-out: RS4 48 h IC50) it was 8.52.
